Results as given in patent US9624167B2, “N-(4-hydroxy-4-methyl-cyclohexyl)-4-phenyl-benzenesulfonamides and N-(4-hydroxy-4-methyl-cyclohexyl)-4-(2-pyridyl)benzenesulfonamides and their therapeutic use” (PIMCO 2664 LIMITED, priority 2013, dated 2017).
Like-named read-outs stand apart in the source and are kept apart here.

Assays:
[1] = Human Liver Microsomal Stability; format: in vitro ADME; conditions: both sexes, pooled liver microsomes, pH 7.4, human liver microsomes 0.25 mg/mL protein, 1 μM compound, 5 time points 0-60 min, one replicate, read-out: T1/2 (1)
Protocol: Metabolic stability was measured by determining the rate of disappearance of compound in the presence of human liver microsomal preparations, as quantified by liquid chromatography mass-spectrometry and […] mass-spectrometry (LC-MS/MS).
Metabolic stability of test compounds was measured by determination of the rate of disappearance of the compound when incubated in the presence of human liver microsomes. Liver microsomes are prepared from the endoplasmic reticulum of hepatocytes and are the primary source of the most important enzymes (cytochrome P450s) involved in drug metabolism. Study of drug stability in the presence of liver microsomes is accepted as a valuable model permitting rapid prediction of in vivo drug stability.
Human liver microsomes were obtained from a commercial source. Test compounds (1 μM) were incubated with pooled liver microsomes (male and female). Samples were incubated for a 60 minute period and removed at up to 6 time points and analysed by LC-MS/MS for the presence/amount of test compounds.
Microsomes (final protein concentration 0.25 or 0.5 mg/mL), 0.1 M phosphate buffer pH 7.4, and test compound (final concentration 1 μM; diluted from 10 mM stock solution to give a final DMSO concentration of 0.1%) were incubated at 37° C. prior to the addition of Nicotinamide adenine dinucleotide phosphate (NADPH, final concentration 1 mM) to initiate the reaction. The final incubation volume was 100 μL. A control incubation was included for each compound tested, where 0.1 M phosphate buffer pH 7.4 was added instead of NADPH. […]
Each compound was incubated for 0, 5, 15, 30, 45 or 60 minutes. The reactions were stopped by the addition of 100 μL ice-cold acetonitrile containing internal standard (0.001 mM glipizide) at the appropriate time points. The incubation plates were centrifuged at 4000 rpm for 15 minutes at 4° C. to precipitate the protein and 0.1 mL aliquots were analysed using LC-MS/MS, with the conditions shown in the following table.
From a plot of the natural logarithm of the peak area ratio (i.e., the ratio of compound peak area:internal standard peak area) against time, the gradient of the line was determined.

[2] = Rodent pharmacokinetics study; format: in vivo, Sprague-Dawley rats; conditions: rat, dosed at 2 mg/kg intravenously (†)
[3] = Maximum Tolerated Dose, Sprague-Dawley rats; conditions: rat, in vivo, oral, ascending dose
Protocol: The acute safety of the compounds was assessed in rats in order to enable determination of the maximum tolerated dose (MTD), an indication of a compound's safety in animals. The higher the MTD, the greater is the potential safety of the compound being tested.
Two male and two female Sprague-Dawley rats, aged 8-12 weeks, were dosed at each dose level in an ascending dose study design. The test compounds were administered orally as a suspension formulated in 0.5% carboxymethylcellulose (CMC)/0.1% Tween-80 in a dose volume of 10 mL/kg. Animals were given free access to food throughout the study.
Animals were observed on at least two occasions during the first hour following dosing, approximately 30 minutes apart, and thereafter at hourly intervals for the remainder of the dosing day for at least 4 hours. […] The nature and severity, where appropriate, of the clinical signs and time were recorded at each observation. Observations included changes in the skin, fur, eyes, and mucous membranes, and also the respiratory, circulatory, autonomic, and central nervous system, as well as somatomotor activity and behaviour pattern. Particular attention was directed towards the observation of tremors, convulsions, salivation, diarrhoea, lethargy, sleep, and coma.
At the completion of the study, the results were expressed as the maximum tolerated dose for each compound, this being the highest of each without unacceptable toxicity.
The maximum dose without unacceptable side-effects was determined to be the MTD (expressed in mg/kg).

J774 macrophages = experiment: Resazurin Macrophage J774 Viability Assay; format: cell-based; conditions: Mus musculus, 12 point concentration range 10 μM to 0.5 nM, n = 4 replicates, mean of 3 independent experiments, 72 hour incubation, read-out: IC50 (2)
hERG ion channel = biological target: T1, hERG ion channel (Homo sapiens, UniProt Q12809); experiment: hERG Ion Channel Assay (Q-patch, hERG-CHO cells); format: cell-based; conditions: hERG tail current, hERG-CHO cells, Q-patch; read-out: IC50 (1)
T1 construct: expressed in transfected cells; host or cells: Chinese Hamster Ovary cells (hERG-CHO), stably transfected
Method in brief: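 Automated whole-cell Q-patch on hERG-CHO cells (held at 30° C for 24–48 h beforehand), −80 mV holding, +20 mV for 2 s then −40 mV for 1 s to elicit tail current every 5 s. Cumulative rising concentrations, 5 min each; percent tail-current inhibition fitted to three-parameter logistic for IC50.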

[4] = female Sprague-Dawley rats, read-out: Maximum tolerated dose, Females
[5] = male Sprague-Dawley rats, read-out: Maximum tolerated dose, Males

T1 sequence (Q12809 whole entry): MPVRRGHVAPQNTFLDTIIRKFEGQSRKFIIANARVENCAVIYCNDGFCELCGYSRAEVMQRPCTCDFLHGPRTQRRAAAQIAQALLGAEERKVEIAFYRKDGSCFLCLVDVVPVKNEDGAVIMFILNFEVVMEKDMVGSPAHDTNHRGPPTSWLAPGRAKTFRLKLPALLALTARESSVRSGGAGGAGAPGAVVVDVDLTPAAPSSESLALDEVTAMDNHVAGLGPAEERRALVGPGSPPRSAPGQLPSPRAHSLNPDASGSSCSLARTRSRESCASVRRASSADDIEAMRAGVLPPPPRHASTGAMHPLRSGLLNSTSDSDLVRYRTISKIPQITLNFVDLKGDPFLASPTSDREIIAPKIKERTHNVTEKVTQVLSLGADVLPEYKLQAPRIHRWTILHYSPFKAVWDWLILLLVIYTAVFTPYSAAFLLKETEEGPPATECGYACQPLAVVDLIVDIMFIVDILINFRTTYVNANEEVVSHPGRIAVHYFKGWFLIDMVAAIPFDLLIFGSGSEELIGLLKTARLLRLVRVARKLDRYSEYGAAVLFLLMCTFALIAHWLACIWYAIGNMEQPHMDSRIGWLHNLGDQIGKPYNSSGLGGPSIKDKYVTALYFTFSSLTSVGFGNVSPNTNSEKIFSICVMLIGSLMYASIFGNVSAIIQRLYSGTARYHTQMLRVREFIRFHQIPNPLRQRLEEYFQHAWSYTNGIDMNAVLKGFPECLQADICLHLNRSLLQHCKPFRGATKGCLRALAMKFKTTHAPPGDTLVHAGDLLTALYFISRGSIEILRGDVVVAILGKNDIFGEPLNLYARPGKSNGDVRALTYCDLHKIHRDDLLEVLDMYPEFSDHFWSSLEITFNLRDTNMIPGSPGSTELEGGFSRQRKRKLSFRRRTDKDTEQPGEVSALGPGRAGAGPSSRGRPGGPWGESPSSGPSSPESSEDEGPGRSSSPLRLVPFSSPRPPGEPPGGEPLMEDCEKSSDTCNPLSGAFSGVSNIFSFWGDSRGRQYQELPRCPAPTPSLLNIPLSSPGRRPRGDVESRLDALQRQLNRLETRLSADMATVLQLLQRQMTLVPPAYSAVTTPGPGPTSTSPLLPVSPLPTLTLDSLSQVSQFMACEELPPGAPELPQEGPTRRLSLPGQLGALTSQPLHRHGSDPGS

Question: Which results are given for C[C@]1(O)CC[C@H](NS(=O)(=O)c2ccc(-c3ncc(Cl)cc3Cl)cc2)CC1 [HMC-N-03-A, 4-(3,5-Dichloropyridin-2-yl)-N-((1r,4r)-4-hydroxy-4-methylcyclohexyl)benzenesulfonamide]?
Answer: half-life at 1 μM [1]: 4.3 h; i.v. AUC [2]: 5102 ng·min/mL; MTD [3, 4]: 50 mg/kg; MTD [3, 5]: 50 mg/kg; IC50 (J774 macrophages): 0.62 µM; IC50 (hERG ion channel): > 30 µM

Question: Which half-life at 1 μM [1] does the source give for C[C@]1(O)CC[C@H](NS(=O)(=O)c2ccc(-c3ncc(F)cc3F)cc2)CC1 [HMC-N-02-A, 4-(3,5-Difluoropyridin-2-yl)-N-((1r,4r)-4-hydroxy-4-methylcyclohexyl)benzenesulfonamide] here?
Answer: Its half-life at 1 μM is 6.12 h.

Question: And the “i.v. AUC” value [2]?
Answer: Its value is 3053 ng·min/mL.

Question: And the MTD [3, 4]?
Answer: Its MTD is greater than 200 mg/kg.

Question: And the MTD [3, 5]?
Answer: The MTD was greater than 200 mg/kg.

Question: And the IC50 (J774 macrophages)?
Answer: Its IC50 is 4.59 µM.

Question: What about the IC50 (hERG ion channel) of the same molecule?
Answer: Its IC50 is 231 µM.
